IC50 data for seven compounds are collected here from patent publication US11161815B2, “Hydrocarbylsulfonyl-substituted pyridines and their use in the treatment of cancer” (Oblique Therapeutics AB, priority 2017, dated 2021).

One test has as its system MDA-MB-231. Kind of test: Cancer cell viability assay (MTT), MDA-MB-231. Type of test: cell-based. Conditions: Homo sapiens, 72 hrs, 10% FBS media. As for the experimental part: (§1) Breast cancer and glioblastoma cell lines were plated 4000 cells/well in 96-well plates in the presence of 10% FBS media. The following day cells were treated with various concentrations of the example compounds (0.1% DMSO final) and incubated for 72 hrs. After the incubation An MTT assay was performed to access cell viability. Percent of viability was determined using DMSO vehicle and no cell (blank) controls.

The test system of another test is U-87 MG. Kind of test: Cancer cell viability assay (MTT), U-87 MG. Type of test: cell-based. Conditions: Homo sapiens, 72 hrs, 10% FBS media. The method, then:
as §1

Another test concerns MDA-MB-231 cells. Kind of test: Breast cancer cell viability assay (Alamar Blue). The test is classed as cell-based. Conditions: Homo sapiens, 72 hrs, 10% FBS media containing 25 nM selenite. As for the experimental part: MDA-MB-231 cells were plated 2000 cells/well in 96-well black optical plates in the presence of 10% FBS media containing 25 nM selenite. The following day cells were treated with various concentrations of compounds (0.1% DMSO final) and incubated for 72 hrs. After the incubation Alamar Blue reagent was added to each well and incubated for additional 3 hrs. Fluorescence was read ex:530 nm/em:590 nm, and percent of viability was determined using DMSO vehicle and no cell (blank) controls.

A further test relates to MDA-MB-468. Kind of test: Cancer cell viability assay (MTT), MDA-MB-468. The test is classed as cell-based. The following applies: Homo sapiens, 72 hrs, 10% FBS media. As for the experimental part:
as §1

Test [1] has as its target recombinant thioredoxin reductase 1 (TrxR1) (Homo sapiens (Human), UniProt Q16881). Kind of test: Inhibition of recombinant TrxR1 (DTNB assay). The following applies: 30 nM TrxR1, 250 μM NADPH, 15 minutes incubation, read-out: TrxR Assay IC50. Type of test: biochemical. As for the experimental part: (§2) Small molecule inhibition of recombinant thioredoxin reductase 1 (TrxR1) and gluthathione reductase (GR) was examined in 96-well plate format. 30 nM TrxR1 was incubated in the presence of 250 μM NADPH, 0.1 mg/ml BSA, and various concentrations of compound (1% DMSO final) in 50 mM Tris (pH 7.5) and 2 mM EDTA buffer for 15 minutes. Following the incubation period, 2 mM DTNB was added to each well and the change in O.D. at 412 nm was followed. Percent activity was determined using DMSO vehicle and no TrxR1 (blank) controls. 2 nM GR was incubated in the presence of 250 μM NADPH, 0.1 mg/ml BSA, and various concentrations of compounds (1% DMSO final) in 50 mM Tris (pH 7.5) and 2 mM EDTA buffer for 15 minutes. Following the incubation period, 1 mM GSSG was added to each well and the change in O.D. at 340 nm was followed. Percent activity was determined using DMSO vehicle and no GR (blank) controls.

The test system of the next test is FaDu cells. Kind of test: Head and neck cancer cell viability assay (Cell-Quanti Blue). The test is classed as cell-based. Conditions: Homo sapiens, 72 hrs, 10% FBS media containing 25 nM selenite. As for the experimental part: FaDu cells were plated 2000 cells/well in 96-well black optical plates in the presence of 10% FBS media containing 25 nM selenite. The following day cells were treated with various concentrations of the compound of Example 1 (0.1% DMSO final) and incubated for 72 hrs. After the incubation Cell-Quanti Blue reagent was added to each well and incubated for additional 3 hrs. Fluorescence was read ex:530 nm/em:590 nm, and percent of viability was determined using DMSO vehicle and no cell (blank) controls.

In test [2] the target is gluthathione reductase (GR) (Homo sapiens (Human), UniProt P00390). Kind of test: Inhibition of recombinant GR (GSSG assay). Type of test: biochemical. Conditions: 2 nM GR, 250 μM NADPH, 15 minutes incubation. The method, then:
as §2

Some results are limits rather than exact numbers.

The term IC50 denotes the concentration that gives 50% inhibition.

recombinant thioredoxin reductase 1 (TrxR1), sequence (Q16881 151-649): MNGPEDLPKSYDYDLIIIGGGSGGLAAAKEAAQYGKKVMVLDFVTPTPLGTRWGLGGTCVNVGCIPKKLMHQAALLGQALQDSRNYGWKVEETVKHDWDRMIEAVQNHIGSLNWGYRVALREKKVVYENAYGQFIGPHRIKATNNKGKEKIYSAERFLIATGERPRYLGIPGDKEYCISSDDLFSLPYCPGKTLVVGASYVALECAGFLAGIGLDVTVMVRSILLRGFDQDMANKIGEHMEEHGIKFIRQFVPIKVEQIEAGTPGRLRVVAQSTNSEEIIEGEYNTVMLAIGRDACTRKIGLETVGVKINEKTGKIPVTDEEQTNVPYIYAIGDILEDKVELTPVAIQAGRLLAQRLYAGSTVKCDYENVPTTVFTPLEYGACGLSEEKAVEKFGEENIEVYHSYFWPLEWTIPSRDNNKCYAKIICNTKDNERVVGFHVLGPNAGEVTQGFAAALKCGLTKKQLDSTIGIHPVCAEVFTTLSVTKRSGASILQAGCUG
gluthathione reductase (GR), sequence (P00390 44-522): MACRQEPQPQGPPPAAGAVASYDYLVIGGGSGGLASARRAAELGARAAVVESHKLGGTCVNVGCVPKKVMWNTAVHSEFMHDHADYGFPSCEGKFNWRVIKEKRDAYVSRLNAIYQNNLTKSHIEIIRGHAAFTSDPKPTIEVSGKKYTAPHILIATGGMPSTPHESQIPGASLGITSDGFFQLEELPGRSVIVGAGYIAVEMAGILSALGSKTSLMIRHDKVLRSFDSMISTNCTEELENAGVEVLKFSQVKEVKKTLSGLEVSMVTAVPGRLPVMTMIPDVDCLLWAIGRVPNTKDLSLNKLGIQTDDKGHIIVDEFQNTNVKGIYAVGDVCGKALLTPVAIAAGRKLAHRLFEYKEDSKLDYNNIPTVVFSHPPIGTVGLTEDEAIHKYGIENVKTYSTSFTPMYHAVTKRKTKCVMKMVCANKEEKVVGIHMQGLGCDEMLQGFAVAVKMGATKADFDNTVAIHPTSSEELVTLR

Turning to `COc1ccc([N+](=O)[O-])c(S(=O)(=O)Cc2ccccc2)n1` [Example 1, 2-Benzylsulfonyl-6-methoxy-3-nitropyridine], the IC50 worked out at 1800 nM with MDA-MB-231; 6110 nM with U-87 MG; 3810 nM in the test with MDA-MB-231 cells; 2890 nM in the test with MDA-MB-468; 18.2 nM in test [1]; 280 nM in the test with FaDu cells. Besides, the IC50 in test [2] is > 100000 nM.
Consider `CCCCCCS(=O)(=O)c1nc(OC)ccc1[N+](=O)[O-]` [Example 3, 2-Hexylsulfonyl-6-methoxy-3-nitropyridine], for which the IC50 is 489 nM in test [1], 450 nM with FaDu cells and > 100000 nM in test [2].
The matching figures for `O=[N+]([O-])c1ccc(Cl)nc1S(=O)(=O)Cc1ccccc1` [Example 4, 2-Benzylsulfonyl-6-chloro-3-nitropyridine]: 39.2 nM, 660 nM and 18100 nM.
The like results for `O=[N+]([O-])c1ccc(Cl)nc1S(=O)(=O)C1CCCC1` [Example 5, 6-Chloro-2-(cyclopentylsulfonyl)-3-nitropyridine] were, in that order, 181 nM, 1010 nM and 60500 nM.
Take `CCCCCCS(=O)(=O)c1nc(Cl)ccc1[N+](=O)[O-]` [Example 6, 6-Chloro-2-(hexylsulfonyl)-3-nitropyridine]: the IC50 amounted to 56 nM in test [1], 710 nM in the test with FaDu cells and 8760 nM in test [2].
The matching figures for `CN(C)c1ccc([N+](=O)[O-])c(S(=O)(=O)C2CCCC2)n1` [Example 8, 2-Cyclopentylsulfonyl-6-dimethylamino-3-nitropyridine]: 188 nM, 6970 nM and > 100000 nM.
With `CCCCCCS(=O)(=O)c1nc(N(C)C)ccc1[N+](=O)[O-]` [Example 9, 6-Dimethylamino-2-hexylsulfonyl-3-nitropyridine], the half-maximal inhibitory concentration (IC50) in test [1] is 333 nM; with FaDu cells it was 12700 nM; in test [2], > 100000 nM.
